Patent publication US20250197389A1, “NITROGEN-CONTAINING HETEROCYCLIC COMPOUND” (SHANGHAI SHIJIANG BIOTECHNOLOGY CO., LTD, priority 2022, published 2025)
pIC50: −log10 of the molar value.

Key:
mPTP-active Daoy cell = assay: Inhibitory effect on mPTP-active Daoy cell (Promega CellTiter-Glo, intracellular ATP); type: cell-based, human; conditions: Daoy cell transfected with empty virus vector without PPIF shRNA
mPTP-inactive Daoy cell = assay: Inhibitory effect on mPTP-inactive Daoy cell (PPIF shRNA; Promega CellTiter-Glo, intracellular ATP); type: cell-based, human; conditions: Daoy cell transfected with virus vector carrying PPIF shRNA
From the text: The activity of mitochondria permeability transition pore (mPTP) was regulated by the PPIF protein. […] PPIF protein activity was restricted by the expression level of PPIF protein in cell.

Structure (SMILES)	pIC50 (mPTP-active Daoy cell; Homo sapiens, Daoy)	pIC50 (mPTP-inactive Daoy cell; Homo sapiens, Daoy)	pIC50 (mPTP-active Daoy cell)	pIC50 (mPTP-inactive Daoy cell)
COc1ccc2c(c1OCc1ccccc1-c1ccccc1)C(C(Cl)(Cl)Cl)N1CCc3cc4c(cc3C1=C2)OCO4 (stereo not drawn) [AB35531]	5.44	5.81		
COc1ccc2c(c1NCCc1ccccc1)C(C1CCCC1)N1CCc3cc4c(cc3C1=C2)OCO4 (stereo not drawn) [AB35457]	5.49	5.82		
COc1ccc2c(c1OCCCCNC(=O)OC(C)(C)C)C(C(Cl)(Cl)Cl)N1CCc3cc4c(cc3C1=C2)OCO4 (stereo not drawn) [AB35423]			5.32	5.63
CCOc1c(OC)ccc2c1CN1CCc3cc4c(cc3C1=C2)OCO4 [AB35594]	5.58	5.96		
CCCCCCC1=C2c3cc4c(cc3CCN2C(C(Cl)(Cl)Cl)c2c1ccc(OC)c2OC)OCO4 (stereo not drawn) [AB35508]	5.65	6.00		
COc1ccc2c(c1OCCCF)C(C)N1CCc3cc4c(cc3C1=C2)OCO4 (stereo not drawn) [AB35485]	4.79	5.28		
CCCOc1c(OC)ccc2c1C(C1CCCC1)N1CCc3cc4c(cc3C1=C2)OCO4 (stereo not drawn) [AB35512]	5.37	5.80		
COc1ccc2c(c1OCCNC(=O)OC(C)(C)C)C(C)N1CCc3cc4c(cc3C1=C2)OCO4 (stereo not drawn) [AB35424]	4.86	5.21		
ClC(Cl)(Cl)C1c2c(ccc3c2OCO3)C(CCCc2ccccc2)=C2c3cc4c(cc3CCN21)OCO4 (stereo not drawn) [AB35428]	4.89	5.25		
C=CCOc1c(OC)ccc2c1C(C(Cl)(Cl)Cl)N1CCc3cc4c(cc3C1=C2)OCO4 (stereo not drawn) [AB35534]	5.41	5.89		
COc1ccc2c(c1OC(=O)CC13CC4CC(CC(C4)C1)C3)C(C1CCCC1)N1CCc3cc4c(cc3C1=C2)OCO4 (stereo not drawn) [AB35459]	4.90	5.21		
COc1ccc2c(c1OCCCCCCCl)C(C)N1CCc3cc4c(cc3C1=C2)OCO4 (stereo not drawn) [AB31888]	5.26	5.57		
C1=C2c3cc4c(cc3CCN2C(C2CCCC2)c2c1ccc1c2OCO1)OCO4 (stereo not drawn) [AB36423]	5.17	5.69		
COc1ccc2c(c1N1CCN(C)CC1)C(C(Cl)(Cl)Cl)N1CCc3cc4c(cc3C1=C2)OCO4 (stereo not drawn) [AB35518]	5.08	5.51		
CCCCOc1c(OC)ccc2c1C(C(Cl)(Cl)Cl)N1CCc3cc4c(cc3C1=C2)OCO4 (stereo not drawn) [AB35494]	5.89	6.44		
CCCCCC1=C2c3cc4c(cc3CCN2C(C(Cl)(Cl)Cl)c2c1ccc(OC)c2OC)OCO4 (stereo not drawn) [AB35418]	5.49	5.81		
[2H]C1c2c(ccc(OC)c2OC)C=C2c3cc4c(cc3CCN21)OCO4 (stereo not drawn) [AB36415]	5.66	5.97		
COc1ccc2c(c1OC)C(n1cccc1)N1CCc3cc4c(cc3C1=C2)OCO4 (stereo not drawn) [AB36520]	4.79	4.80		
COc1ccc2c(c1OC)C(C)N1CCc3cc4c(cc3C1=C2CCCCc1ccccc1)OCO4 (stereo not drawn) [AB35468]	5.64	5.98		
CCCCCCC1=C2c3cc4c(cc3CCN2C(C2CCCC2)c2c1ccc(OC)c2OC)OCO4 (stereo not drawn) [AB35489]	5.77	6.10		
CC1=C2c3cc4c(cc3CCN2C(C(Cl)(Cl)Cl)c2c1ccc1c2OCO1)OCO4 (stereo not drawn) [AB36442]	4.52	4.53		
COc1ccc2c(c1OCCCCN)C(C)N1CCc3cc4c(cc3C1=C2)OCO4 (stereo not drawn) [AB35429]	5.28	5.65		
CCC(CC)COc1c(OC)ccc2c1C(C(Cl)(Cl)Cl)N1CCc3cc4c(cc3C1=C2)OCO4 (stereo not drawn) [AB35521]	5.62	5.99		
CCCCCC1=C2c3cc4c(cc3CCN2C(C2CCCC2)c2c1ccc(OC)c2OC)OCO4 (stereo not drawn) [AB35522]	5.40	5.87		
COc1ccc2c(c1OC)C(C(Cl)(Cl)Cl)N1CCc3cc4c(cc3C1=C2CCCc1ccccc1)OCCO4 (stereo not drawn) [AB35484]	5.51	6.01		
COc1ccc2c(c1OCCCCl)C(C1CCCCC1)N1CCc3cc4c(cc3C1=C2)OCO4 (stereo not drawn) [AB35491]	5.22	5.58		
COc1ccc2c(c1OC)C(C1CCCCC1=O)N1CCc3cc4c(cc3C1=C2)OCO4 (stereo not drawn) [AB36525]	5.82	5.78		
